One series has as its system Phakopsora pachyrhizi. The series is described as follows: Fungicidal activity against Phakopsora pachyrhizi / soybean / leaf disc preventative (Asian soybean rust). The series is classed as in vivo. The settings on record: foliar, 200 ppm in the applied formulation, soybean leaf disks, vs untreated control, read-out: disease control. Put shortly: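 Preventative test: compound sprayed onto soybean leaf discs one day before spore inoculation of the lower leaf face. Incubation at 20 °C and 75% rh, first 24-36 h in darkness, then a 12 h light cycle. Disease control versus untreated discs read 12-14 days after application.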

Series [1] relates to Puccinia recondita f. sp. Tritici. Description: Fungicidal activity against Puccinia recondita f. sp. Tritici / wheat / leaf disc curative (brown rust). The series is classed as in vivo. The following applies: foliar, 24 h, 200 ppm in the applied formulation, wheat leaf segments cv. Kanzler, applied 1 day after inoculation, vs untreated control, read-out: disease control. Put shortly: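 Compounds, prepared from DMSO solutions of at most 10 mg/ml and diluted just before spraying, are applied curatively to inoculated Kanzler wheat leaf segments. Segments are incubated at 19° C and 75% RH in a climate cabinet; disease control relative to untreated is evaluated 6 to 8 days later.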

The test system is the same in series [2]. The series is described as follows: Fungicidal activity against Puccinia recondita f. sp. Tritici / wheat / leaf disc preventative (brown rust). The settings on record: foliar, 200 ppm in the applied formulation, wheat leaf segments cv. Kanzler, inoculated 1 day after application, vs untreated control, read-out: disease control. The series is classed as in vivo. Put shortly:
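Wheat leaf segments (cv. Kanzler) on water agar were sprayed with test compound (DMSO stock diluted in 0.025% Tween20/water), then spore-inoculated 1 day later. Incubation at 19° C., 75% rh, 12 h light/12 h dark; percent disease control versus untreated segments scored 7 to 9 days after application. Tested at 200 ppm.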

Series [3] has as its system Glomerella lagenarium (Colletotrichum lagenarium). The series is described as follows: Fungicidal activity against Glomerella lagenarium (Colletotrichum lagenarium) liquid culture / cucumber / preventative (anthracnose). The series is classed as cell-based. The following applies: Colletotrichum orbiculare, 72 h; 20 ppm in the applied formulation; liquid culture (PDB), growth inhibition measured photometrically 3 to 4 days after application; vs untreated control; read-out: disease control. In a few lines: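 Spore-based broth assay: conidia mixed into PDB meet compound from a DMSO solution in 96-well format, incubate at 24° C., then inhibition of growth is determined by photometry 3–4 days later relative to the untreated check.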

`CON=CCNC(=O)c1ccc(-c2noc(C(F)(F)F)n2)c(F)c1` [Compound 1.166, 3-fluoro-N-(2-methoxyimino-ethyl)-4-[5-(trifluoromethyl)-1,2,4-oxadiazol-3-yl]benzamide]: the melting point fell in the range of 120 to 122 °C. Also, in the series with Phakopsora pachyrhizi, the pest or weed control at 200 ppm is no less than 80%. Also, the pest or weed control at 200 ppm in series [1] was no less than 80%. Besides, the pest or weed control at 200 ppm in series [2] is no less than 80%. Besides, the inhibition of growth at 20 ppm in series [3] was no less than 80%.

Regarding `CON=CC(C)NC(=O)c1ccc(-c2noc(C(F)(F)F)n2)cc1F` (stereo not shown) [Compound 1.155, 2-fluoro-N-(2-methoxyimino-1-methyl-ethyl)-4-[5-(trifluoromethyl)-1,2,4-oxadiazol-3-yl]benzamide], the melting point was in the range of 132 to 134 °C. Also, the pest or weed control at 200 ppm with Phakopsora pachyrhizi was no less than 80%. In addition, the pest or weed control at 200 ppm in series [2] is no less than 80%. Also, in series [3], the inhibition of growth at 20 ppm is no less than 80%.

`CC(/C=N\OCCF)NC(=O)c1ccc(-c2noc(C(F)(F)F)n2)cc1` (stereo not shown) [Compound 1.150, N-[(2Z)-2-(2-fluoroethoxyimino)-1-methyl-ethyl]-4-[5-(trifluoromethyl)-1,2,4-oxadiazol-3-yl]benzamide]: the melting point was 172 to 173 °C. Further, the pest or weed control at 200 ppm with Phakopsora pachyrhizi is no less than 80%. In series [1], the pest or weed control at 200 ppm was no less than 80%. In addition, the pest or weed control at 200 ppm in series [2] was no less than 80%. In addition, the inhibition of growth at 20 ppm in series [3] was no less than 80%.

The compound `CO/N=C(\C)CNC(=O)c1ccc(-c2noc(C(F)(F)F)n2)cc1` [Compound 1.13, N-[(2E)-2-methoxyimino-propyl]-4-[5-(trifluoromethyl)-1,2,4-oxadiazol-3-yl]benzamide] yielded a melting point of 145 to 146 °C. Also, in the series with Phakopsora pachyrhizi, the pest or weed control at 200 ppm was no less than 80%. Further, the pest or weed control at 200 ppm in series [1] was no less than 80%. Moreover, the pest or weed control at 200 ppm in series [2] is no less than 80%. In series [3], the inhibition of growth at 20 ppm was no less than 80%.

`CON=CCNC(=O)c1ccc(-c2noc(C(F)(F)F)n2)cc1F` [Compound 1.169, 2-fluoro-N-(2-methoxyimino-ethyl)-4-[5-(trifluoromethyl)-1,2,4-oxadiazol-3-yl]benzamide] yielded a melting point of 116 to 118 °C.

The compound `O=C(NCCC=NO)c1ccc(-c2noc(C(F)(F)F)n2)cc1` [Compound 1.154, N-(3-hydroxyimino-propyl)-4-[5-(trifluoromethyl)-1,2,4-oxadiazol-3-yl]benzamide] yielded a melting point of 180 to 183 °C. Further, the pest or weed control at 200 ppm with Phakopsora pachyrhizi was no less than 80%. Also, the pest or weed control at 200 ppm in series [1] was no less than 80%. In addition, the pest or weed control at 200 ppm in series [2] is no less than 80%. For the same compound, the inhibition of growth at 20 ppm in series [3] is no less than 80%.

In turn, `O=C(NCC=NOCCF)c1ccc(-c2noc(C(F)(F)F)n2)cc1` [Compound 1.148, N-[2-(2-fluoroethoxyimino)ethyl]-4-[5-(trifluoromethyl)-1,2,4-oxadiazol-3-yl]benzamide] gave a melting point of 145 to 146 °C. Also, the pest or weed control at 200 ppm with Phakopsora pachyrhizi was no less than 80%. For the same compound, in series [1], the pest or weed control at 200 ppm is no less than 80%. In addition, the pest or weed control at 200 ppm in series [2] was no less than 80%. The inhibition of growth at 20 ppm in series [3] was no less than 80%.

For the compound `CON=CCCNC(=O)c1ccc(-c2noc(C(F)(F)F)n2)c(F)c1` [Compound 1.160, 3-fluoro-N-(3-methoxyiminopropyl)-4-[5-(trifluoromethyl)-1,2,4-oxadiazol-3-yl]benzamide], the melting point fell in the range of 103 to 108 °C. The pest or weed control at 200 ppm in the series on Phakopsora pachyrhizi is no less than 80%. Moreover, in series [1], the pest or weed control at 200 ppm was no less than 80%. In addition, in series [2], the pest or weed control at 200 ppm is no less than 80%. The inhibition of growth at 20 ppm in series [3] is no less than 80%.

Consider `CC(/C=N/OCCF)NC(=O)c1ccc(-c2noc(C(F)(F)F)n2)cc1` (stereo not shown) [Compound 1.149, N-[(2E)-2-(2-fluoroethoxy-imino)-1-methyl-ethyl]-4-[5-(trifluoromethyl)-1,2,4-oxadiazol-3-yl]benzamide], for which the melting point was in the range of 138 to 139 °C. For the same compound, the pest or weed control at 200 ppm in the series on Phakopsora pachyrhizi was no less than 80%. The pest or weed control at 200 ppm in series [1] is no less than 80%. In addition, the pest or weed control at 200 ppm in series [2] was no less than 80%. For the same compound, the inhibition of growth at 20 ppm in series [3] was no less than 80%.

On to `CCON=CCCNC(=O)c1ccc(-c2noc(C(F)(F)F)n2)cc1` [Compound 1.153, N-(3-ethoxyiminopropyl)-4-[5-(trifluoromethyl)-1,2,4-oxadiazol-3-yl]benzamide], for which the melting point lay within 132 to 136 °C. For the same compound, the pest or weed control at 200 ppm in the series with Phakopsora pachyrhizi was no less than 80%. The pest or weed control at 200 ppm in series [1] is no less than 80%. Further, in series [2], the pest or weed control at 200 ppm was no less than 80%. Moreover, the inhibition of growth at 20 ppm in series [3] is no less than 80%.

Consider `CON=CCNC(=O)c1ccc(-c2noc(C(F)(F)F)n2)cc1` [Compound 1.10, N-(2-methoxyimino-ethyl)-4-[5-(trifluoromethyl)-1,2,4-oxadiazol-3-yl]benzamide], for which the melting point lay within 155 to 157 °C. Also, the pest or weed control at 200 ppm with Phakopsora pachyrhizi was no less than 80%. In series [1], the pest or weed control at 200 ppm was no less than 80%. The pest or weed control at 200 ppm in series [2] is no less than 80%. In addition, the inhibition of growth at 20 ppm in series [3] was no less than 80%.

`CO/N=C(\C)C(NC(=O)c1ccc(-c2noc(C(F)(F)F)n2)cc1)OC` (stereo not shown) [Compound 1.7, N-[(2E)-1-methoxy-2-methoxyimino-propyl]-4-[5-(trifluoromethyl)-1,2,4-oxadiazol-3-yl]benzamide] returned a melting point of 100.7 to 106.9 °C. Moreover, the pest or weed control at 200 ppm in the series on Phakopsora pachyrhizi was no less than 80%. Moreover, the pest or weed control at 200 ppm in series [1] was no less than 80%. In series [2], the pest or weed control at 200 ppm was no less than 80%. Besides, in series [3], the inhibition of growth at 20 ppm was no less than 80%.

Compound `CCON=CCNC(=O)c1ccc(-c2noc(C(F)(F)F)n2)cc1` [Compound 1.11, N-(2-ethoxyiminoethyl)-4-[5-(trifluoromethyl)-1,2,4-oxadiazol-3-yl]benzamide] displayed a melting point of 156 to 158 °C. In the series on Phakopsora pachyrhizi, the pest or weed control at 200 ppm was no less than 80%. The pest or weed control at 200 ppm in series [1] was no less than 80%. The pest or weed control at 200 ppm in series [2] was no less than 80%. Further, the inhibition of growth at 20 ppm in series [3] is no less than 80%.

Consider `CO/N=C/CN(C(=O)c1ccc(-c2noc(C(F)(F)F)n2)cc1)C1CC1` [Compound 1.170, N-cyclopropyl-N-[(2E)-2-methoxyiminoethyl]-4-[5-(trifluoromethyl)-1,2,4-oxadiazol-3-yl]benzamide], for which the melting point fell in the range of 60 to 62 °C.

For the compound `CCON=CC(C)NC(=O)c1ccc(-c2noc(C(F)(F)F)n2)cc1F` (stereo not shown) [Compound 1.156, N-(2-ethoxyimino-1-methyl-ethyl)-2-fluoro-4-[5-(trifluoromethyl)-1,2,4-oxadiazol-3-yl]benzamide], the melting point fell in the range of 113 to 115 °C. In addition, in the series with Phakopsora pachyrhizi, the pest or weed control at 200 ppm was no less than 80%. Also, the pest or weed control at 200 ppm in series [1] was no less than 80%. Besides, the inhibition of growth at 20 ppm in series [3] is no less than 80%.

As to `CC(CNC(=O)c1ccc(-c2noc(C(F)(F)F)n2)cc1)=NOC1CCCCO1` (stereo not shown) [Compound 1.114, N-(2-tetrahydropyran-2-yloxyiminopropyl)-4-[5-(trifluoromethyl)-1,2,4-oxadiazol-3-yl]benzamide], the pest or weed control at 200 ppm (in the series with Phakopsora pachyrhizi; in series [1]; in series [2]) was no less than 80% in each case. Also, the inhibition of growth at 20 ppm in series [3] was no less than 80%.

On to `C=CCON=CCNC(=O)c1ccc(-c2noc(C(F)(F)F)n2)cc1` [Compound 1.91, N-(2-allyloxyiminoethyl)-4-[5-(trifluoromethyl)-1,2,4-oxadiazol-3-yl]benzamide], for which the pest or weed control at 200 ppm (with Phakopsora pachyrhizi; in series [1]; in series [2]) was no less than 80% throughout. The inhibition of growth at 20 ppm in series [3] was no less than 80%.

For the compound `CC(C)(C)ON=CCNC(=O)c1ccc(-c2noc(C(F)(F)F)n2)cc1` [Compound 1.89, N-(2-tert-butoxyiminoethyl)-4-[5-(trifluoromethyl)-1,2,4-oxadiazol-3-yl]benzamide], the pest or weed control at 200 ppm (in the series on Phakopsora pachyrhizi; in series [1]; in series [2]) was no less than 80% each time. For the same compound, in series [3], the inhibition of growth at 20 ppm was no less than 80%.

Regarding `CC(CNC(=O)c1ccc(-c2noc(C(F)(F)F)n2)cc1)=NOCCO` [Compound 1.104], the pest or weed control at 200 ppm (in the series with Phakopsora pachyrhizi; in series [1]; in series [2]) was no less than 80% each time. Moreover, the inhibition of growth at 20 ppm in series [3] was no less than 80%.

Turning to `CC(CNC(=O)c1ccc(-c2noc(C(F)(F)F)n2)cc1)=NOCCN` [Compound 1.110, N-[2-(2-aminoethoxy-imino)propyl]-4-[5-(trifluoromethyl)-1,2,4-oxadiazol-3-yl]benzamide], the pest or weed control at 200 ppm (with Phakopsora pachyrhizi; in series [1]; in series [2]) was no less than 80% in each case. The inhibition of growth at 20 ppm in series [3] is no less than 80%.
